Test results as given in ChEMBL document CHEMBL1129781, “Inhibition of protein phosphatase 2A by cantharidin analogues” (Bioorg Med Chem Lett, 1996).

How the values were obtained:
[1] = Compound was tested for inhibition of specific [3H]cantharidin binding to CBP: Range= 200->100000; set-up: species or system Mus musculus
[2] = species: Mus musculus; assay: Compound was tested for inhibition of cantharidin-binding protein(CBP) phosphatase isolated from mouse liver.; set-up: concentration or dose not given beside the values; details: concentration not given here
[3] = Compound was tested for inhibition of specific [3H]cantharidin binding to CBP.; set-up: species or system Mus musculus
[4] = target: Serine/threonine-protein phosphatase 2A 65 kDa regulatory subunit A alpha isoform (Mus musculus, UniProt Q76MZ3); assay: Compound was tested for inhibitory concentration of Protein Phosphatase 2A (PP2A).
Serine/threonine-protein phosphatase 2A 65 kDa regulatory subunit A alpha isoform, sequence (Q76MZ3 whole entry, canonical isoform): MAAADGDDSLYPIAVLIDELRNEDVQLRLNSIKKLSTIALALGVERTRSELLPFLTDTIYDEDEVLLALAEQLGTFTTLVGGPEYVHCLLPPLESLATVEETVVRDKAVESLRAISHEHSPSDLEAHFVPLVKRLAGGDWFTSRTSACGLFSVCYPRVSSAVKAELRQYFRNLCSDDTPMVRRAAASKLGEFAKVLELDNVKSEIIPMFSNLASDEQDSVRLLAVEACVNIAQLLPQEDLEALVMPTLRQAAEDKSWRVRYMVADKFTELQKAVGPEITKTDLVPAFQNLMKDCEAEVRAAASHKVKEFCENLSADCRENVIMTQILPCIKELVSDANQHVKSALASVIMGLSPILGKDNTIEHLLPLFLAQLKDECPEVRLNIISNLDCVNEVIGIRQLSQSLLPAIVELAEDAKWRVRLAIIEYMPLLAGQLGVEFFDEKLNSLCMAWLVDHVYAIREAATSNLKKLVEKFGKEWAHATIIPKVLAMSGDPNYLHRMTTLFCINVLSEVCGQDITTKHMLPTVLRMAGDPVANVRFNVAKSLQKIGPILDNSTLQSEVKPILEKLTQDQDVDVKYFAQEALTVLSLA

[5] = species: Mus musculus; assay: Inhibition of Protein Phosphatase 2A (PP2A) partially purified from mouse brain; format: tissue-based; set-up: concentration or dose not given beside the values; details: concentration not given here
[6] = Compound was tested for inhibition of specific [3H]cantharidin binding to CBP: Range= 10-50; set-up: species or system Mus musculus
[7] = species: Mus musculus; assay: Compound was tested for inhibition of cantharidin-binding protein(CBP) phosphatase isolated from mouse liver: Range= 22-51; details: concentration not given here
[8] = Compound was tested for inhibition of specific [3H]cantharidin binding to CBP: Range=4-8; set-up: species or system Mus musculus
[9] = species: Mus musculus; assay: Compound was tested for inhibition of cantharidin-binding protein(CBP) phosphatase isolated from mouse liver: Range=92-95; details: concentration not given here

What does the source list for CC12CCC(C)(O1)C(C(=O)O)C2C(=O)O (stereo unspecified)?
IC50 [1]: > 100 µM; inhibition [2]: 0%

Which results are given for CC1(C(=O)O)C2CCC(O2)C1(C)C(=O)O (stereo unspecified) [CANTHARIDIC_ACID]?
IC50 [3]: 4 µM; inhibition [2]: 95%

With O=C(O)C1C2C=CC(O2)C1C(=O)O (stereo unspecified) as the molecule, how does the IC50 [4] read?
The IC50 was 300 µM.

What about the inhibition [5] of the same molecule?
The inhibition was 80.3%.

For O=C1OC(=O)C2C3CCC(O3)C12 (stereo unspecified) [DEMETHYL-CANTHARIDIN], which IC50 [4] is on record?
Its IC50 is 70 µM.

And the inhibition [5]?
Its inhibition is 88.3%.

Which inhibition [5] does the source give for O=C(O)C1CC=CCC1C(=O)O (stereo unspecified) here?
Its inhibition is 12.2%.

With O=C1OC(=O)C2C3CCC(C3)C12 (stereo in doubt; 11) as the molecule, how does the inhibition [5] read?
Its inhibition is 13.3%.

Which inhibition [5] does the source give for O=C1OC(=O)[C@H]2[C@@H]1[C@H]1C=C[C@H]2C1 (stereo in doubt; 6) here?
Its inhibition is 48.8%.

For O=C1OC(=O)C2C3CCC(C3)C12 (stereo in doubt; 7), which inhibition [5] is on record?
Its inhibition is 38.7%.

Which results are given for O=C(O)[C@@H]1[C@H](C(=O)O)[C@H]2CC[C@@H]1O2 [ENDOTHALL]?
IC50 [6]: 0.05 µM; inhibition [7]: 51%

With O=C1OC(=O)C2CC=CCC12 (stereo unspecified) as the molecule, how does the inhibition [5] read?
Its inhibition is 24%.

Which results are given for O=C(O)C1CC2OC1C(C(=O)O)C2C(=O)O (stereo unspecified)?
IC50 [6]: 0.05 µM; inhibition [7]: 51%

Which IC50 [1] does the source give for N#CCC1CC2OC1C(C(=O)O)C2C(=O)O (stereo unspecified) here?
The IC50 was over 100 µM.

And the inhibition [2]?
Its inhibition is 0%.

With O=C(O)C1CC2C=CC1C2 (stereo unspecified) as the molecule, how does the inhibition [5] read?
Its inhibition is 3.8%.

With O=C1OC(=O)[C@H]2[C@@H]1[C@H]1C=C[C@H]2C1 (stereo in doubt; 5) as the molecule, how does the inhibition [5] read?
The inhibition was 48.1%.

For CC12C(=O)OC(=O)C1(C)C1CCC2O1 (stereo unspecified), which IC50 [4] is on record?
Its IC50 is 8 µM.

What about the inhibition [5] of the same molecule?
The inhibition was 95%.

And the IC50 [8]?
The IC50 was 0.004 µM.

What about the inhibition [9] of the same molecule?
Its inhibition is 92%.

Which results are given for CC1(C(=O)O)C2CCC(O2)C1C(=O)O (stereo unspecified)?
IC50 [6]: 0.05 µM; inhibition [7]: 51%

What does the source list for CCOC(=O)C1CC2OC1C(C(=O)O)C2C(=O)O (stereo unspecified)?
IC50 [1]: > 100 µM; inhibition [2]: 0%

Which inhibition [5] does the source give for O=C1OC(=O)C2CCCCC12 (stereo unspecified) here?
Its inhibition is 9.2%.

For O=C1OC(=O)C2C3C=CC(O3)C12 (stereo unspecified), which IC50 [4] is on record?
Its IC50 is 40 µM.

And the inhibition [5]?
The inhibition was 95.2%.

For O=C(O)C1C2C=CC(C2)C1C(=O)O (stereo unspecified), which inhibition [5] is on record?
The inhibition was 17.2%.

For O=C1OC(=O)C23CCCC12C1CCC3O1 (stereo unspecified), which IC50 [3] is on record?
The IC50 was 4 µM.

And the inhibition [2]?
The inhibition was 95%.

With COC(=O)C1CC2C=CC1C2 (stereo unspecified) as the molecule, how does the inhibition [5] read?
The inhibition was 30.8%.
